Tests used:
[1] = tested on: PTZ-induced clonic seizures; assay: PTZ85 assay, latency of clonic seizures; type: in vivo; settings: 1800 micromoles, male cd1/cr mice
Description: SCMET (PTZ85) Assay. Male CD1/CR mice weighing from 25-35 g are administrated test compounds (range of 5 doses) 15 minutes prior to PTZ. PTZ is administrated subcutaneously, just caudal to the cranium, at a dose of 85 mg/kg. Animals are then caged individually and observed for 15 minutes. The occurrence and latency to clonic and/or tonic convulsions are recorded. The mice are used once. Ten mice are used in each dose group. […] ED50 is determined from a graph of percentage protection vs log(dose) following the known method of Litchfield^18, where percentage protection refers to the percent of animals in each dose group which are protected against seizures. The compounds of interest were tested at an equivalent dose of 1800 micromoles on male cd1/cr mice using the PTZ85 Assay to induce clonic (repetitive seizures). Both the latency (time of seizure onset) and the number of animals protected increased with the size of the ring, or with increased lipophilicity.

[2] = tested on: rotarod test (neurotoxicity); assay: Rotarod neurotoxicity test (TOX), rats, oral; type: in vivo; settings: 200 mg/kg
Description: Anticonvulsant testing was conducted at the antiepileptic screening facility of the National Institute for Neurological Disorders and Stroke in Rockville, Md. Initial tests were done in mice (i.p.) followed by oral and i.p. administration to rats. Neurotoxicity was evaluated with the rotarod test. Maximal electroshock (MES) and subcutaneous methylene tetrazole (SCMET) or pentylene tetrazole (PTZ) were the most common tests performed. Typical procedures are described below.
Rotorod Test. Acute drug induced neurotoxicity is detected in mice using the standard rotorod test. An untreated mouse, when placed on a 6 rpm rotation rod, can maintain its equilibrium for a prolonged period of time.
A number of VPA analogues and their sodium salts were tested for their efficacy as anticonvulsants and for their toxicity using the MES Assay and rotarod test. In particular, the following compounds (as shown in the structures below) were tested: 332059U (sodium salt of VPA), 325071 (known compound, tested for comparison), 325073A (metabolite of VPA), 332060U (4,4-difluoro-2-propylpentanoate, fluorinated analogue of VPA), 341031, and 341032U (conjugated (E,Z)-2,3′-diene VPA analogues).

[3] = tested on: Subcutaneous Methylene Tetrazole (SCMET) seizures; assay: Subcutaneous methylene tetrazole (SCMET) test, rats, oral, time to peak effect; type: in vivo
[4] = tested on: Maximal Electroshock (MES) seizures; assay: Maximal electroshock (MES) test, rats, oral, time to peak effect; type: in vivo
Description: Anticonvulsant testing was conducted at the antiepileptic screening facility of the National Institute for Neurological Disorders and Stroke in Rockville, Md. Initial tests were done in mice (i.p.) followed by oral and i.p. administration to rats. Neurotoxicity was evaluated with the rotarod test. Maximal electroshock (MES) and subcutaneous methylene tetrazole (SCMET) or pentylene tetrazole (PTZ) were the most common tests performed. Typical procedures are described below. MES Assay. Male CD1/CR mice weighing from 25-35 g are administrated test compounds 15 minutes prior to MES. Mice are challenged by pulsed electrical stimulation (50 mA, 0.4 s duration, pulse width 0.5 ms, 60 pulses/sec) via corneal electrodes to induce seizure. Mice are observed post-stimulation for the onset of tonic seizures, and considered to have a tonic seizure only if there is a prolonged extension (>90° from plane of body) of the hind legs. […] Ten mice are used in each group. A number of VPA analogues and their sodium salts were tested for their efficacy as anticonvulsants and for their toxicity using the MES Assay and rotarod test.

[5] = Pharmacokinetics and tissue distribution (plasma, liver, brain) after i.p. administration; type: in vivo, male Sprague-Dawley rats; settings: rat, FIG. 1, Table 5
PTZ-induced seizures = assay: ED50 against PTZ-induced seizures, i.p.; type: in vivo; settings: Rattus norvegicus, ip, male Sprague-Dawley rats (n = 8)
Excerpt: These compounds were investigated for anticonvulsant activity in mice^13 and rats (see results in Table 4) and found to be equivalent in potency to VPA.

## O=C(O)/C=C/C=C1CCCCCCC1 [Compound 41d, (2E)-4-Cyclooctylidenebut-2-enoic Acid]
other
  melting point: 114 to 116 °C

## O=C(O)/C=C/C=C1CCCC1 [Compound 41a, (2E)-4-Cyclopentylidenebut-2-enoic Acid]
other
  melting point: 112 to 114 °C

## O=C(O)/C=C/C=C1CCCCC1 [Compound 41b, (2E)-4-Cyclohexylidenebut-2-enoic Acid]
other
  melting point: 132 to 134 °C

## O=C([O-])/C=C/C=C1CCCC1.[Na+]
[1]
  Latency of Clonic Seizures: 589 s
  Number of Mice Protected Against Clonic Seizures (Out of 10): 2

## C/C=C\C(=C/C)C(=O)[O-].[Na+] [325071A, Sodium (2E,3Z)-2-ethylidenpent-3-enoate]
[2]; 0.25 h
  TOX: N/F = number of animals that failed the rotarod test to numbers tested: 0/8
[2]; 0.5 h
  TOX: N/F = number of animals that failed the rotarod test to numbers tested: 0/8
[2]; 1.0 h
  TOX: N/F = number of animals that failed the rotarod test to numbers tested: 0/8
[2]; 2.0 h
  TOX: N/F = number of animals that failed the rotarod test to numbers tested: 0/8
[2]; 4.0 h
  TOX: N/F = number of animals that failed the rotarod test to numbers tested: 0/4
[3]; 80 mg/kg, 0.25 h
  SCMET N/F = number of animals protected relative to number tested: 0/4
[3]; 80 mg/kg, 0.5 h
  SCMET N/F = number of animals protected relative to number tested: 0/4
[3]; 80 mg/kg, 1.0 h
  SCMET N/F = number of animals protected relative to number tested: 1/4
[3]; 80 mg/kg, 2.0 h
  SCMET N/F = number of animals protected relative to number tested: 0/4
[3]; 80 mg/kg, 4.0 h
  SCMET N/F = number of animals protected relative to number tested: 0/4
[3]; 200 mg/kg, 0.25 h
  SCMET N/F = number of animals protected relative to number tested: 2/4
[3]; 200 mg/kg, 0.5 h
  SCMET N/F = number of animals protected relative to number tested: 0/4
[3]; 200 mg/kg, 1.0 h
  SCMET N/F = number of animals protected relative to number tested: 0/4
[3]; 200 mg/kg, 2.0 h
  SCMET N/F = number of animals protected relative to number tested: 1/4
[3]; 200 mg/kg, 4.0 h
  SCMET N/F = number of animals protected relative to number tested: 1/4
[4]; 80 mg/kg, 0.25 h
  MES N/F = number of animals protected relative to number tested: 0/4
[4]; 80 mg/kg, 0.5 h
  MES N/F = number of animals protected relative to number tested: 0/4
[4]; 80 mg/kg, 1.0 h
  MES N/F = number of animals protected relative to number tested: 0/4
[4]; 80 mg/kg, 2.0 h
  MES N/F = number of animals protected relative to number tested: 0/4
[4]; 80 mg/kg, 4.0 h
  MES N/F = number of animals protected relative to number tested: 0/4
[4]; 200 mg/kg, 0.25 h
  MES N/F = number of animals protected relative to number tested: 0/4
[4]; 200 mg/kg, 0.5 h
  MES N/F = number of animals protected relative to number tested: 1/4
[4]; 200 mg/kg, 1.0 h
  MES N/F = number of animals protected relative to number tested: 0/4
[4]; 200 mg/kg, 2.0 h
  MES N/F = number of animals protected relative to number tested: 1/4
[4]; 200 mg/kg, 4.0 h
  MES N/F = number of animals protected relative to number tested: 0/4

## O=C(O)/C=C\C=C1CCCCCC1 [Compound 42c, (2Z)-4-Cycloheptylidenebut-2-enoic Acid]
other
  melting point: 86 to 88 °C

## O=C(O)/C=C\C=C1CCCCCCC1 [Compound 42d, (2Z)-4-Cyclooctylidenebut-2-enoic Acid]
other
  melting point: 110 to 112 °C

## CCC=C(CCC)C(=O)O [(E)-2-ene VPA, 2-propylpent-2-enoic acid]
[5]
  Affinity for / accumulation in the liver (in words): markedly reduced affinities for liver
PTZ-induced seizures
  ED50: 185 mg/kg

## O=C(O)/C=C/C=C1CCCCCC1 [Compound 41c, (2E)-4-Cycloheptylidenebut-2-enoic Acid]
other
  melting point: 88 to 89 °C
